Source: paper PMC7927021 (Toxins, 2021)
“And” between values parts separate entries of the source, which are not always exact repeats. Equal values may be shown once.

Tests used:
Caco-2 cells [1] = type: cell-based, human
Caco-2 cells [2] = type: cell-based, human; remark: listed apart in the source
[3] = set-up: method as in PMID 21699062; details: established by JECFA in 2011; cited from earlier work

CC(=O)O[C@@H]1C[C@]2(C)[C@@]3(CO)[C@H](O)C(=O)C(C)=C[C@H]3O[C@H]1[C@@]21CO1 [3-ADON, trichothec-9-en-8-one, 3-(acetyloxy)-12,13-epoxy-7,15-dihydroxy-, (3α,7α)]
Concentration range in which viability was significantly/sharply reduced (Caco-2 cells [1]): 1 to 10 µM
Concentration range of robust decrease in cell viability (Caco-2 cells [1]): 2 to 10 µM
IC50 (Caco-2 cells [1]): 13.2 µM and 10.8 µM and 7.84 µM
Number of KEGG pathways in which DEGs were enriched (Caco-2 cells [2]): 42
Number of differentially expressed genes (DEGs) (Caco-2 cells [2]): 3132

CC1=C[C@H]2O[C@@H]3[C@H](O)C[C@](C)([C@@]2(CO)[C@H](O)C1=O)[C@]31CO1 [DON, Deoxynivalenol]
Concentration range in which viability was significantly/sharply reduced (Caco-2 cells [1]): 0.2 to 10 µM
Concentration range of robust decrease in cell viability (Caco-2 cells [1]): 0.2 to 10 µM
Number of KEGG pathways in which DEGs were enriched (Caco-2 cells [2]): 27
Number of differentially expressed genes (DEGs) (Caco-2 cells [2]): 2656
PMTDI (Provisional Maximum Tolerable Daily Intake) [3]: 1 μg/kg bw per day

CC(=O)OC[C@]12[C@H](O)C(=O)C(C)=C[C@H]1O[C@@H]1[C@H](O)C[C@@]2(C)[C@]12CO2 [15-ADON, trichothec-9-en-8-one, 15-(acetyloxy)-12,13-epoxy-3,7-dihydroxy-, (3α,7α)]
Concentration range in which viability was significantly/sharply reduced (Caco-2 cells [1]): 0.2 to 10 µM
Concentration range of robust decrease in cell viability (Caco-2 cells [1]): 0.5 to 10 µM
Number of KEGG pathways in which DEGs were enriched (Caco-2 cells [2]): 28
Number of differentially expressed genes (DEGs) (Caco-2 cells [2]): 2425
